{
  "source": "patent US20250213614A1",
  "about": "“Modified RELA Protein for Inducing Interferon Expression and Engineered Immune Cells with Improved Interferon Expression” (Institut Curie, priority 2022, published 2025)",
  "molecules": {"B1": {"name": "RELA K5Q: RELA mutant converting five lysine residues (K122, K123, K310, K314, K315) to glutamine, acetylation mimic (protein, UniProt Q04206 1-551, looked up, variant K122Q K123Q K310Q K314Q K315Q)", "Transcription factor p65": "MDELFPLIFPAEPAQASGPYVEIIEQPKQRGMRFRYKCEGRSAGSIPGERSTDTTKTHPTIKINGYTGPGTVRISLVTKDPPHRPHPHELVGKDCRDGFYEAELCPDRCIHSFQNLGIQCVQQRDLEQAISQRIQTNNNPFQVPIEEQRGDYDLNAVRLCFQVTVRDPSGRPLRLPPVLSHPIFDNRAPNTAELKICRVNRNSGSCLGGDEIFLLCDKVQKEDIEVYFTGPGWEARGSFSQADVHRQVAIVFRTPPYADPSLQAPVRVSMQLRRPSDRELSEPMEFQYLPDTDDRHRIEEKRKRTYETFQSIMQQSPFSGPTDPRPPPRRIAVPSRSSASVPKPAPQPYPFTSSLSTINYDEFPTMVFPSGQISQASALAPAPPQVLPQAPAPAPAPAMVSALAQAPAPVPVLAPGPPQAVAPPAPKPTQAGEGTLSEALLQLQFDDEDLGALLGNSTDPAVFTDLASVDNSEFQQLLNQGIPVAPHTTEPMLMEYPEAITRLVTGAQRPPDPAPAPLGAPGLPNGLLSGDEDFSSIADMDFSALLSQISS"}},
  "type_in_all_cases": "cell-based, human",
  "key": {"[1]": {"test_system": "STING, TBK1, IRF3, RELA, IRF7", "test": "Western blot of key signaling proteins involved in STING signaling", "conditions": "for endogenous RELA expression: overexpression in CD4+ T cells and MDDC, FIG. 2C", "protocol": "0.5 million cells were lysed for 30 minutes on ice in 50 μl RIPA buffer (50 mM Tris HCl, 150 mM NaCl, 0.1% SDS, 0.5% DOC, 1% NP-40) with Protease inhibitor (Roche #1187358001). To evaluate, phospho-proteins 50 mM NaF and 1 mM sodium orthovanadate were added to the lysis buffer. Protein lysates were cleared by centrifugation at 12,000 g for 10 to 12 minutes at 4° C. 10 μl of 6× Laemmli buffer (fisher scientific #J61337) was added to 50 μl protein lysates and samples were boiled at 95° C. for 15 minutes. Protein samples were resolved on 4%-20% Biorad precast SDS-PAGE gels (#5671125) and transferred onto PVDF membranes (BioRad #1704157). Membranes were blocked in 5% non-fat dry milk in PBS 0.1% tween or in TBS 5% BSA 0.1% Tween to detect phosphorylated proteins. Primary antibodies were used at 1:1000:phospho-STING (clone-D7C3S), STING (clone-D2P2F), serine 172 phospho-TBK1 (clone-D52C2), TBK1 (clone-D11B4), serine 396 phospho IRF3 (clone-D6O1M), IRF3 (clone-D83B9), RELA (clone-C22B4), IRF7 (clone-12G9A36), cGAS (clone-D1 D3G), Actin (clone-C4), Sendai viral proteins (Biozol #MBL-PD029). Secondary anti-rabbit or anti-mouse antibody were used at 1:10,000 (santa cruz #sc-2357, #sc-516102). ECL signal (Biorad #1705061 and #1705062) was recorded on a ChemiDoc Touch Biorad Imager. Data was analyzed and quantified with Image Lab software (Biorad). In figures, dotted lines indicate reordering of lanes from a single original membrane for visualization purpose."}, "[2]": {"test_system": "CD4+ T cells", "test": "IFN-I/III quantification (LEGENDplex) in CD4+ T cells, baseline or after STING stimulation", "conditions": "for IFNλ1 after cGAMP stimulation: 2D, 2F", "protocol": "(§1) Plasmapheresis blood pockets were obtained from healthy adult volunteers after informed consent from the EFS (Establishment of French blood collection). Peripheral blood mononuclear cells (PBMCs) were isolated using Ficoll-Paque Plus (GE-17144003) and left overnight at 4° C. in RPMI (Thermo fischer #61870-010) with 10% heat-decomplemented fetal bovine serum (FBS, Eurobio #CVFSVFO0-01). CD14+ cells were enriched by positive selection (Miltenyi #130-050-201), the CD14 negative fraction was subsequently used to isolate total CD4+ T cells by negative selection (Stem Cell #17952). CD14+ cells were cultured in RPMI containing 10% FBS, 5% Penicillin-Streptomycin (PS, Thermo Fisher #10378-016), 50 μg/ml Gentamicin (Thermo Fisher #15750-045) and 10 mM HEPES (Thermo Fisher #15630-056). CD14+ cells were differentiated ex vivo into MDDC by supplementing the culture media with 50 ng/ml IL-4 (Miltenyi #130-093-922) and 10 ng/ml GM-CSF (Miltenyi #130-093-867). MDDC were used for experiments 3 or 4 days following the start of the culture. CD14+ cells were differentiated ex vivo into macrophages by adding 50 ng/ml MCSF (Miltenyi #130-096-492) to the culture media containing RPMI with 1% PS, 5% FBS and 5% human serum (Sigma #H4522). MDM were used 7 days following culture. Freshly isolated CD4+ T cells were cultured in X-VIVO 15 (Lonza #BE02-060F) and activated using anti-CD3 and anti-CD28 Dynabeads (fisher scientific #10548353) at the ratio of 1:5 (bead:cell). 100 U/ml human IL-2 (Immunotools #11340027) was added to cultures 2 days following TCR stimulation and media with IL-2 was replenished every 48 hours. To assess proliferation, freshly isolated CD4+ T cells were stained with cell proliferation dye (thermo fischer #65-0840-85) prior to TCR stimulation.\n(§2) CD14+ cells were plated at 1 million cells/ml and transduced with equal volumes of freshly harvested SIV-VLPs and pTRIP-SFFV vectors in the presence of 8 μg/ml protamine (Sigma #P4020). CD4+ T cells were transduced with lentivectors 24 hours post-TCR stimulation in 100 μl of cells (0.2 million cells) and 100 μl of freshly harvested lentivirus in the presence of 8 μg/ml protamine. T cells were spinoculated at 1200 g for 2 hours at 25° C. 0.5 million THP-1 cells in 500 μl media (RPMI 10% FBS 1% PS) were transduced with 500 μl freshly harvested lentivirus in the presence of 8 μg/ml protamine. 1 μg/ml Puromycin (Invivogen #ant-pr-1) was added 2 days post-transduction when cells were transduced with pLKO.1-puro plasmid.\nFor stimulation of STING by extracellular ligands, 2.5 μg of ADUS100 (invivogen #tlrl-nacda2r-01) or 2′3′-cGAMP (cGAMP, invivogen #tlrl-nacga23-02) was added to 100,000 cells in 100 μl media either on freshly isolated primary cells or 3-4 days post differentiation for MDDC and 3 days post-TCR stimulation for CD4+ T cells. Cells and supernatant were harvested 18-24 hours post stimulation. For delivery of STING ligands after permeabilization, T cells were used 3 or 4 days post TCR stimulation and MDDC were used 3-4 days following differentiation. 150,000 cells were plated in round bottom 96-well plate. Media was removed by centrifugation and 20 μl 2× permeabilization buffer (100 mM HEPES, 200 mM KCl, 6 mM MgCl2, 0.2 mM DTT, 170 mM Sucrose, 2 mM ATP, 2 mM GTP, 0.4% bovine serum albumin (BSA), 20 μg/ml digitonin) and 20 μl cGAMP (12 μg/ml) was added to cells. 18 to 20 hours following stimulation supernatants and cells were harvested. Cells were stained with a fixable viability dye (Invitrogen #65-0865-14) and acquired on a FACSVerse (BD). […]\nWhere indicated, cells were treated with 5-Azacytidine (5AZA, Sigma #A2385) 48 hours prior to cGAMP stimulation. Fresh 5AZA was added daily to cells, and media was replenished with 5AZA following cGAMP stimulation. 100 nM Trichostatin A (TSA) (sigma #T1952) was added to cells following cGAMP stimulation and left overnight. […]"}, "[3]": {"test_system": "CD4+ T cells", "test": "Bulk RNAseq of activated CD4+ T cells after cGAMP", "conditions": "five hours after cGAMP 6 μg/ml", "protocol": "Five hours following cGAMP (6 μg/ml) stimulation of activated CD4+ T cells, total RNA was extracted (Macherey-Nagel #740955.50). […] RNA sequencing libraries were prepared from 500 ng of total RNA using the Illumina TruSeq Stranded mRNA Library preparation kit. A first step of polyA selection using magnetic beads was performed to focus sequencing on polyadenylated transcripts. After fragmentation, cDNA synthesis was performed and resulting fragments were used for dA-tailing and ligated to the TruSeq indexed adapters. PCR amplification was performed to create the final cDNA library (with 13 cycles). After quantification of PCR products, sequencing was carried out using 2*100 cycles (paired-end reads, 100 nucleotides) on a Novaseq6000 instrument, targeting 25M clusters. The data was aligned to the hg19 (ENSEMBL annotation: v.74) genome using the RNA-seq pipeline of the Curie bioinformatics platform, rnaseq v3.1.1. Reads were trimmed with TrimGalore (v.0.6.2) and aligned on the reference genome using STAR (v 2.6.1) ^71. Quality control was done with picard (v.2.18.15), RSeQC (v.2.6.4) and preseq (v.2.0.3)^72. Read counts were generated with STAR. Quality reports were generated with MultiQC (v.1.7). […]"}, "[4]": {"test_system": "MDDC", "test": "IFN-I/III quantification (LEGENDplex) in MDDC after STING stimulation", "conditions": "lentivector overexpression in MDDC, cGAMP 6 μg/ml; for IFN-I/III response to cGAMP compared to the control condition: FIG. 2D", "protocol": "as §1, §2\nFor stimulation of STING by extracellular ligands, 2.5 μg of ADUS100 (invivogen #tlrl-nacda2r-01) or 2′3′-cGAMP (cGAMP, invivogen #tlrl-nacga23-02) was added to 100,000 cells in 100 μl media either on freshly isolated primary cells or 3-4 days post differentiation for MDDC and 3 days post-TCR stimulation for CD4+ T cells. Cells and supernatant were harvested 18-24 hours post stimulation. For delivery of STING ligands after permeabilization, T cells were used 3 or 4 days post TCR stimulation and MDDC were used 3-4 days following differentiation. 150,000 cells were plated in round bottom 96-well plate. Media was removed by centrifugation and 20 μl 2× permeabilization buffer (100 mM HEPES, 200 mM KCl, 6 mM MgCl2, 0.2 mM DTT, 170 mM Sucrose, 2 mM ATP, 2 mM GTP, 0.4% bovine serum albumin (BSA), 20 μg/ml digitonin) and 20 μl cGAMP (12 μg/ml) was added to cells. 18 to 20 hours following stimulation supernatants and cells were harvested. Cells were stained with a fixable viability dye (Invitrogen #65-0865-14) and acquired on a FACSVerse (BD).\nFor experiments with conditioned media, CD4+ T cell- and MDDC-conditioned media refer to […] filtered conditioned media from cultures of activated CD4+ T cell and MDDC, respectively. CD4+ T cells were pretreated with 100 μl of MDDC-conditioned media or of fresh MDDC culture media, 24 hours prior to cGAMP stimulation. […]"}, "[5]": {"conditions": "lentivector overexpression in CD4+ T cells, FIG. 2B"}},
  "data": [
    {"molecule": "CC(/C=C/C(=O)NO)=C\\[C@@H](C)C(=O)c1ccc(N(C)C)cc1", "note": "[TSA, Trichostatin A, reference compound]", "values": [
      {"measurement": "cGAMP-mediated STING signaling", "setting": "[1]; CD4+ T cells treated with TSA or 5AZA, FIG. 3E", "result": "intact"},
      {"measurement": "IFN expression at baseline with RELA K5R and after cGAMP stimulation", "setting": "[2]; CD4+ T cells treated with TSA", "result": "inhibits IFN expression"},
      {"measurement": "IFNλ1 response to cGAMP under epigenetic inhibitor", "setting": "[2]; CD4+ T cells, TSA 100 nM or 5AZA 2 μM, FIG. 3D", "result": "reduced the already low IFNλ1 production"}
    ]},
    {"molecule": "Nc1nc2c(ncn2[C@@H]2O[C@@H]3COP(=O)(O)O[C@H]4[C@@H](O)[C@H](n5cnc6c(N)ncnc65)O[C@@H]4COP(=O)(O)O[C@@H]2[C@@H]3O)c(=O)[nH]1", "note": "[cGAMP, 2′3′-cGAMP, reference compound]", "values": [
      {"measurement": "phosphorylated levels of STING, TBK1 and IRF3, CD4+ T cells versus MDDC", "setting": "[1]; 6 hours after cGAMP 6 μg/ml, FIG. 1G", "result": "identical"},
      {"measurement": "IRF7 expression (RNAseq)", "setting": "[3]", "result": "induced"},
      {"measurement": "IFNβ protein", "setting": "[2]; cGAMP delivered by digitonin-mediated membrane permeabilization, FIG. 1F", "result": "undetectable"},
      {"measurement": "IFN response to STING ligands", "setting": "[2]; resting blood CD4+ T cells, soluble ligand 1 μg or 2.5 μg, FIG. 1B", "result": "undetectable"}
    ]},
    {"molecule": "RELA: wild type human RELA protein (transcription factor p65, Uniprot Q04206), overexpressed from lentivector [reference compound]", "values": [
      {"measurement": "IFN-I/III response to cGAMP, RNA and protein levels", "setting": "[4]; FIG. 2B", "result": "did not significantly enhance"},
      {"measurement": "IFN-I/III response to cGAMP compared to the control condition", "setting": "[4]", "result": "remained unchanged"},
      {"measurement": "endogenous RELA expression", "setting": "[1]", "result": "no impact"},
      {"measurement": "IFNλ1 after cGAMP stimulation", "setting": "[2]; [5]", "result": "tendency for increased IFNλ1"},
      {"measurement": "IFN-I/III response to cGAMP, RNA and protein levels", "setting": "[2]; lentivector overexpression in CD4+ T cells, cGAMP 6 μg/ml, FIG. 2B", "result": "did not significantly enhance"}
    ]},
    {"molecule": "shRNA 1: pLKO.1-puro-IRF7sh1, shRNA against IRF7, CCCGAGCTGCACGTTCCTATA [reference compound]", "values": [
      {"measurement": "IRF7 expression (knock-down)", "setting": "[1]; CD4+ T cells treated with IFNα2a 1000 U/ml, FIG. 4B", "result": "more potent"},
      {"measurement": "induction of IFNα2 by cGAMP stimulation", "setting": "[2]; CD4+ T cells expressing only RELA K5R, IRF7 knock-down, FIG. 4C", "result": "abolished"}
    ]},
    {"molecule": "B1", "values": [
      {"measurement": "IFN-I/III response to cGAMP compared to the control condition", "setting": "[4]", "result": "remained unchanged"},
      {"measurement": "endogenous RELA expression", "setting": "[1]", "result": "no impact"},
      {"measurement": "IFNλ1 after cGAMP stimulation", "setting": "[2]; [5]", "result": "abrogated"}
    ]}
  ]
}
